Results as given in patent US11306084B2, “Integrin antagonists” (Saint Louis University, priority 2016, dated 2022).
Counter-ions that a name gives are not always drawn.

Legend:
[1] = target: T1, Recombinant human integrin ανβ8 (Homo sapiens, UniProt P06756+P26012); assay: Solid Phase Receptor Assay (SPRA) for ανβ8 function; assay type: binding; conditions: plate-bound human LAP; read-out: αvβ8 SPRA IC50
T1 construct: purchased R&D Systems 4135-AV
Experimental: F. Solid Phase Receptor Assay (SPRA) for ανβ8 Function
Wells were washed 3 times with 150 μL TBS+ and then 150 μL of blocking buffer (TBS+ with 1% bovine serum albumin, Sigma A7906) was added. The plate was incubated for 1 hr at 37° C. and then washed 3× with TBS+. […] Compounds were diluted to 20 μM and 1 μL was added to each well of the plate according to a standard template with each sample repeated in triplicate. After incubation for two hours at room temperature, the plate was washed 3× with 150 μL of TBS+. To each well, 50 μL of biotinylated anti-αν antibody (R&D Systems, BAF1219) at 1 μg/mL in TBS+/0.1% BSA were added and the plate was covered and incubated for 1 hr at room temperature. After washing the plate 3× with 150 μL. of TBS+ buffer, 50 μL of streptavidin-conjugated horseradish peroxidase (R&D Systems, DY998) diluted in TBS+ blocking buffer were added to the wells and the plate incubated for 20 min at room temperature. The plate was washed 3× with TBS+ followed by 50 μL of TMB substrate (Sigma T4444) added to each well in the dark and the plate incubated for 10 min at room temperature. 25 μL of 1.0 M phosphoric acid was added as a stop solution and the plates were read at 450 nm using a Spectramax plate reader.

[2] = target: T2, Recombinant human integrin ανβ1 (Homo sapiens, UniProt P05556+P06756); assay: Solid Phase Receptor Assay (SPRA) for ανβ1 function; assay type: binding; conditions: plate-bound human fibronectin; read-out: αvβ1 SPRA IC50
T2 construct: purchased R&D Systems 6579-AV
Experimental: B. Solid Phase Receptor Assay (SPRA) for ανβ1 Function
Wells were washed 3 times with 150 μL TBS+ and then 150 μL of blocking buffer (TBS+ with 1% bovine serum albumin, Sigma A7906) was added. The plate was incubated for 1 hr at 37° C. and then washed 3× with TBS+ buffer. […] Compounds were diluted to 20 μM and 1 μL was added to each well of the plate according to a standard template with each sample repeated in triplicate. After incubation for two hours at room temperature, the plate was washed 3 with 150 μL of TBS+ buffer. To each well, 50 μL of biotinylated anti-αν antibody (R&D Systems, BAF1219) at 1 μg/mL in TBS+/0.1% BSA were added and the plate covered and incubated for 1 hr at room temperature. After washing the plate 3× with 150 μL of TBS+ buffer, 50 μL of streptavidin-conjugated horseradish peroxidase (R&D Systems, DY998) diluted in TBS+ blocking buffer were added to the wells and the plate incubated for 20 min at room temperature. The plate was washed 3× with TBS+ buffer followed by 50 μL of TMB substrate (Sigma, T4444) added to each well in the dark and the plate incubated for 25 min at room temperature. 25 μL of 1.0 M phosphoric acid was added as a stop solution and the plates were read at 450 nm using a Spectramax plate reader.

T1 sequence (P06756 31-992 limits assumed): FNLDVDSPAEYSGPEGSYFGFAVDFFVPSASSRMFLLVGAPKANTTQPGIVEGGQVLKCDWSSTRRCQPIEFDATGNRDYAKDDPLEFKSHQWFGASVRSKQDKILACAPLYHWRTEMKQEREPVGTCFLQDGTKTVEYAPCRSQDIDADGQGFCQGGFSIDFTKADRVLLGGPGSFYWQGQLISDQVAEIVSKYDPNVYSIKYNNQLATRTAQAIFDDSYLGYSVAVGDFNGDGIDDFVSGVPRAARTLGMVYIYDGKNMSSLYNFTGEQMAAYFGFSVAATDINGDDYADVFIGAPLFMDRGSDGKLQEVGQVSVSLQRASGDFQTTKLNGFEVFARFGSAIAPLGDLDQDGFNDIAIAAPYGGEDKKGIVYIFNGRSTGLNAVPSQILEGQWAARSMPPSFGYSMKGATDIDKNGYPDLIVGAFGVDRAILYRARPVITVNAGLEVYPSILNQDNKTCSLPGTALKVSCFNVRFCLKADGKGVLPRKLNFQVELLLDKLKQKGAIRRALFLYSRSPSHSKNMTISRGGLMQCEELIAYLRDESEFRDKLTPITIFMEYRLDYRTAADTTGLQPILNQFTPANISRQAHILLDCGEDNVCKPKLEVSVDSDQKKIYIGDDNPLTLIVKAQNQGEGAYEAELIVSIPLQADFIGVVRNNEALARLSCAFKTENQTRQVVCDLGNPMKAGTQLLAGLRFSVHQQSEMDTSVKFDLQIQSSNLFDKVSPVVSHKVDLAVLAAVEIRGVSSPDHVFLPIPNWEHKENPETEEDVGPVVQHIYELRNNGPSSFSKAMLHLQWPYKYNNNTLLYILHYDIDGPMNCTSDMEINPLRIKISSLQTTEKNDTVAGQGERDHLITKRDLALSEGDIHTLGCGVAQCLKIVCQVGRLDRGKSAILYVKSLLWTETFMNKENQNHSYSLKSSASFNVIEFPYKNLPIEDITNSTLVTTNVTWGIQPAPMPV
T1 sequence (P26012 43-684 limits assumed): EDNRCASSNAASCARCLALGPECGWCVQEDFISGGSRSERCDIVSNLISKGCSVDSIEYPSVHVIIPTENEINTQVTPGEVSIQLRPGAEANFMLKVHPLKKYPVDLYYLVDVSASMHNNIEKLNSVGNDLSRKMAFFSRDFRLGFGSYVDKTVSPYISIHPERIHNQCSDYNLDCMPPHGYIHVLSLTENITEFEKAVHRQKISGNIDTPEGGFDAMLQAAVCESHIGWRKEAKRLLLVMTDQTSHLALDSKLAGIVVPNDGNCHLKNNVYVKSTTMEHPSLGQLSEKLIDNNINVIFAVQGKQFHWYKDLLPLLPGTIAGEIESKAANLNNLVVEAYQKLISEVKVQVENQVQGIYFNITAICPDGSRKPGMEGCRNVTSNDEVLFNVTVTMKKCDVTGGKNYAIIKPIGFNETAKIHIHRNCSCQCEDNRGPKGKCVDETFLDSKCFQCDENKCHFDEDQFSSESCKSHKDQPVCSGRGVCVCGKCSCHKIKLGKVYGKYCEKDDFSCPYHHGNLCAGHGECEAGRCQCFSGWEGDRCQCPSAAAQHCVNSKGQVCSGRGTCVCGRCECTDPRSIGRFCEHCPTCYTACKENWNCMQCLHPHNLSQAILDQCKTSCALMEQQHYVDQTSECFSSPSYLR
T2 sequence (P06756 31-992 limits assumed): as the sequence (P06756 31-992 limits assumed) above
T2 sequence (P05556 21-728 limits assumed): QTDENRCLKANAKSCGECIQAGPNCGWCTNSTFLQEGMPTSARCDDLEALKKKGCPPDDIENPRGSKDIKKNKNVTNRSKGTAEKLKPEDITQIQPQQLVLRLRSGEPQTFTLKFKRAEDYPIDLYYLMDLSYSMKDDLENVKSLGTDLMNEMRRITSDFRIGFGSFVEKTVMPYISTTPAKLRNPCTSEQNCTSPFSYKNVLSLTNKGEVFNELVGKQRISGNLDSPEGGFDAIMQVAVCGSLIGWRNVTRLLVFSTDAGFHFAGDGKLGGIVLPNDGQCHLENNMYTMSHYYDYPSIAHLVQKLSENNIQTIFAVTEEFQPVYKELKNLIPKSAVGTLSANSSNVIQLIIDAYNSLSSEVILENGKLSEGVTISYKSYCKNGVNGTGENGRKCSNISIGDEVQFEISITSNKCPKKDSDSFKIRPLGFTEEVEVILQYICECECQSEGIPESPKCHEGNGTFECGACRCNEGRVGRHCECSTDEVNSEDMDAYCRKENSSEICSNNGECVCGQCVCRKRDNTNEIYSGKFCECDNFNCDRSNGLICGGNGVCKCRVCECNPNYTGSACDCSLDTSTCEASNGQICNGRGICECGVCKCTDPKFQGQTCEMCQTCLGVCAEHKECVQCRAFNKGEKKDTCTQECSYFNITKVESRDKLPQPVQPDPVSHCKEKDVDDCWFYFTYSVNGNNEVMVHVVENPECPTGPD

Row | SMILES | IC50 [1] [nM] | IC50 [2] [nM]
1 | Cn1nc(CC(CC(=O)O)c2cc(C(F)(F)F)cc(C3(C(F)F)CC3)c2)cc1OCCc1ccc2c(n1)NCCC2 (centres unmarked) [Example 23, 3-(3-(1-(difluoromethyl)cyclopropyl)-5-(trifluoromethyl)phenyl)-4-(1-methyl-5-(2-(5,6,7,8-tetrahydro-1,8-naphthyridin-2-yl)ethoxy)-1H-pyrazol-3-yl)butanoic Acid] | 7.9 | 3.8
2 | COc1cc(C(C)(C)C)ccc1C(CC(=O)O)Cc1cc(OCCc2ccc3c(n2)NCCC3)n(C)n1 (centres unmarked) [Example 34, 3-(4-(tert-butyl)-2-methoxyphenyl)-4-(1-methyl-5-(2-(5,6,7,8-tetrahydro-1,8-naphthyridin-2-yl)ethoxy)-1H-pyrazol-3-yl)butanoic Acid] | 42 | 47
3 | Cn1nc(CC(CC(=O)O)c2cc(OC(F)(F)F)cc(C(C)(C)C)c2)cc1OCCc1ccc2c(n1)NCCC2 (centres unmarked) [Example 36, 3-[3-tert-butyl-5-(trifluoromethoxy)phenyl]-4-[1-methyl-5-[2-(5,6,7,8-tetrahydro-1,8-naphthyridin-2-yl)ethoxy]pyrazol-3-yl]butanoic Acid] | 40 | 6.5
4 | Cn1nc(CC(CC(=O)O)c2cc(F)cc(C(C)(C)C(F)(F)F)c2)cc1OCCc1ccc2c(n1)NCCC2 (centres unmarked) [Example 24, 3-(3-fluoro-5-(1,1,1-trifluoro-2-methylpropan-2-yl)phenyl)-4-(1-methyl-5-(2-(5,6,7,8-tetrahydro-1,8-naphthyridin-2-yl)ethoxy)-1H-pyrazol-3-yl)butanoic Acid] | 89 | 4.4
5 | COCC1(c2cc(C(CC(=O)O)Cc3cc(OCCc4ccc5c(n4)NCCC5)n(C)n3)cc(C(F)(F)F)c2)CCOCC1 (centres unmarked) [Example 31, 3-(3-(4-(methoxymethyl)tetrahydro-2H-pyran-4-yl)-5-(trifluoromethyl)phenyl)-4-(1-methyl-5-(2-(5,6,7,8-tetrahydro-1,8-naphthyridin-2-yl)ethoxy)-1H-pyrazol-3-yl)butanoic Acid] | 9.9 | 1.4
6 | Cn1nc(CC(CC(=O)O)c2cccc(Br)c2)cc1OCCc1ccc2c(n1)NCCC2 (centres unmarked) [Example 6, 3-(3-bromophenyl)-4-(1-methyl-5-(2-(5,6,7,8-tetrahydro-1,8-naphthyridin-2-yl)ethoxy)-1H-pyrazol-3-yl)butanoic Acid] | 19 | 10
7 | Cn1nc(CC(CC(=O)O)c2cc(Cl)cc(C3(C(F)F)CC3)c2)cc1OCCc1ccc2c(n1)NCCC2 (centres unmarked) [Example 22, 3-(3-chloro-5-(1-(difluoromethyl)cyclopropyl)phenyl)-4-(1-methyl-5-(2-(5,6,7,8-tetrahydro-1,8-naphthyridin-2-yl)ethoxy)-1H-pyrazol-3-yl)butanoic Acid] | 17 | 2.2
8 | Cn1nc(CC(CC(=O)O)c2ccc3c(c2)OCCO3)cc1OCCc1ccc2c(n1)NCCC2 (centres unmarked) [Example 1, 3-(2,3-dihydrobenzo[b][1,4]dioxin-6-yl)-4-(1-methyl-5-(2-(5,6,7,8-tetrahydro-1,8-naphthyridin-2-yl)ethoxy)-1H-pyrazol-3-yl)butanoic Acid] | 52 | 6
9 | Cn1nc(CC(CC(=O)O)c2ccc(C#N)c(F)c2)cc1OCCc1ccc2c(n1)NCCC2 (centres unmarked) [Example 8] | 48 | 12
10 | Cn1nc(CC(CC(=O)O)c2cc(Br)cc(OC(F)(F)F)c2)cc1OCCc1ccc2c(n1)NCCC2 (centres unmarked) [Example 11, 3-(3-bromo-5-(trifluoromethoxy)phenyl)-4-(1-methyl-5-(2-(5,6,7,8-tetrahydro-1,8-naphthyridin-2-yl)ethoxy)-1H-pyrazol-3-yl)butanoic Acid] | 42 | 11
11 | Cn1nc(CC(CC(=O)O)c2cc(C(C)(C)C)ccc2O)cc1OCCc1ccc2c(n1)NCCC2 (centres unmarked) [Example 42, 3-(5-tert-butyl-2-hydroxy-phenyl)-4-[1-methyl-5-[2-(5,6,7,8-tetrahydro-1,8-naphthyridin-2-yl)ethoxyl]pyrazol-3-yl]butanoic Acid Sodium Salt] | 3.1 | 2.4
12 | Cn1nc(CC(CC(=O)O)c2cc(C#N)cc(C(C)(C)C)c2)cc1OCCc1ccc2c(n1)NCCC2 (centres unmarked) [Example 17] | 6.9 | 4.4
13 | Cn1nc(CC(CC(=O)O)c2cc(C#N)cc(C3(C(F)F)CC3)c2)cc1OCCc1ccc2c(n1)NCCC2 (centres unmarked) [Example 20, 3-(3-cyano-5-(1-(difluoromethyl)cyclopropyl)phenyl)-4-(1-methyl-5-(2-(5,6,7,8-tetrahydro-1,8-naphthyridin-2-yl)ethoxy)-1H-pyrazol-3-yl)butanoic Acid] | 14 | 3.9
14 | CC(C)(C)c1cc(Br)cc(C(CC(=O)O)Cc2cc(OCCc3ccc4c(n3)NCCC4)n(CC(F)(F)F)n2)c1 (centres unmarked) [Example 41, 3-(3-bromo-5-tert-butyl-phenyl)-4-[5-[2-(5,6,7,8-tetrahydro-1,8-naphthyridin-2-yl)ethoxy]-1-(2,2,2-trifluoroethyl)pyrazol-3-yl]butanoic Acid Trifluoroacetate] | 6.9 | 4.5
15 | Cn1nc(CC(CC(=O)O)c2cc(F)cc(Cl)c2)cc1OCCc1ccc2c(n1)NCCC2 (centres unmarked) [Example 2, 3-(3-chloro-5-fluorophenyl)-4-(1-methyl-5-(2-(5,6,7,8-tetrahydro-1,8-naphthyridin-2-yl)ethoxy)-1H-pyrazol-3-yl)butanoic Acid] | 32 | 5
16 | COc1c(C(CC(=O)O)Cc2cc(OCCc3ccc4c(n3)NCCC4)n(C)n2)cccc1C(C)(C)C (centres unmarked) [Example 33, 3-(3-(tert-butyl)-2-methoxyphenyl)-4-(1-methyl-5-(2-(5,6,7,8-tetrahydro-1,8-naphthyridin-2-yl)ethoxy)-1H-pyrazol-3-yl)butanoic Acid] | 970 | 2400
17 | Cn1nc(CC(CC(=O)O)c2cc(F)cc(C3(C(F)F)CC3)c2)cc1OCCc1ccc2c(n1)NCCC2 (centres unmarked) [Example 21, 3-(3-(1-(difluoromethyl)cyclopropyl)-5-fluorophenyl)-4-(1-methyl-5-(2-(5,6,7,8-tetrahydro-1,8-naphthyridin-2-yl)ethoxy)-1H-pyrazol-3-yl)butanoic Acid] | 53 | 3.7
18 | Cn1nc(CC(CC(=O)O)c2cc(C#N)cc(C(C)(C)C(F)(F)F)c2)cc1OCCc1ccc2c(n1)NCCC2 (centres unmarked) [Example 28, 3-[3-cyano-5-(2,2,2-trifluoro-1,1-dimethyl-ethyl)phenyl]-4-[1-methyl-5-[2-(5,6,7,8-tetrahydro-1,8-naphthyridin-2-yl)ethoxyl]pyrazol-3-yl]butanoic Acid Trifluoroacetate] | 3.5 | 3.9
19 | COc1ccc([C@H](CC(=O)O)Cc2cc(OCCc3ccc4c(n3)NCCC4)n(C)n2)cc1F [Example 15, (3S)-3-(3-fluoro-4-methoxyphenyl)-4-(1-methyl-5-(2-(5,6,7,8-tetrahydro-1,8-naphthyridin-2-yl)ethoxy)-1H-pyrazol-3-yl)butanoic Acid] | 90 | 3.8
20 | COc1ccc(C#N)cc1C(CC(=O)O)Cc1cc(OCCc2ccc3c(n2)NCCC3)n(C)n1 (centres unmarked) [Example 46, 3-(5-cyano-2-methoxyphenyl)-4-(1-methyl-5-(2-(5,6,7,8-tetrahydro-1,8-naphthyridin-2-yl)ethoxy)-1H-pyrazol-3-yl)butanoic Acid Trifluoroacetate] | 31 | 8.1
21 | COc1ccc(Br)cc1C(CC(=O)O)Cc1cc(OCCc2ccc3c(n2)NCCC3)n(C)n1 (centres unmarked) [Example 14, 3-(5-bromo-2-methoxyphenyl)-4-(1-methyl-5-(2-(5,6,7,8-tetrahydro-1,8-naphthyridin-2-yl)ethoxy)-1H-pyrazol-3-yl)butanoic acid trifluoroacetate] | 12 | 5
22 | Cn1nc(CC(CC(=O)O)c2cc(Cl)cc(C(C)(C)C(F)(F)F)c2)cc1OCCc1ccc2c(n1)NCCC2 (centres unmarked) [Example 27, 3-(3-chloro-5-(1,1,1-trifluoro-2-methylpropan-2-yl)phenyl)-4-(1-methyl-5-(2-(5,6,7,8-tetrahydro-1,8-naphthyridin-2-yl)ethoxy)-1H-pyrazol-3-yl)butanoic Acid] | 11 | 4.4
